Experimental data published in patent publication US11932658B2 (BRISTOL-MYERS SQUIBB COMPANY, priority 2016, dated 2024).

Each compound was assayed against T1, PAR4 (Homo sapiens, UniProt Q96RI0) (assay: PAR4 FLIPR assay (antagonism of agonist peptide-induced calcium mobilization)).
T1 construct: expressed in transfected cells; host or cells: HEK293 PAR4 Clone 1.2A (BMS Arctic ID 383940)
T1 sequence (Q96RI0 18-385): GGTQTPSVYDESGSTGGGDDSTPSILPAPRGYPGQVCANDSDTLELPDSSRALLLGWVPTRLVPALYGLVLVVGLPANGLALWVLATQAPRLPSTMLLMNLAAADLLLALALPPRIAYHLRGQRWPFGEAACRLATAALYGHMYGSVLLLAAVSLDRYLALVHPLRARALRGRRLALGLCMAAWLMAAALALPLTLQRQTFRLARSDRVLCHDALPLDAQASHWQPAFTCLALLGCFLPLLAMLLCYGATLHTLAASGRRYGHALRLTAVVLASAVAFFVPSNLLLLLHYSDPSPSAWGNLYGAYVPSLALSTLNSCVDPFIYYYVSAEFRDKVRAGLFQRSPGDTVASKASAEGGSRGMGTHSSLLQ
Assay type: cell-based
Outline: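 Antagonism was taken as block of calcium mobilization evoked by the agonist peptide H-Ala-Phe(4-F)-Pro-Gly-Trp-Leu-Val-Lys-Asn-[…]-NH2, added after 30 min room-temperature compound preincubation in dye-loaded PAR4-transfected HEK293 cells (endogenous PAR1). Fluorescence was read on FDSS, with compound addition alone used as the agonist counter-screen; values come from 11-point concentration-response curves.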
Work on `COc1cnc2c(-c3nc4cc(F)c5c(c4s3)[C@@H](C)[C@H](COC(=O)Nc3cnc(OCCO)nc3)O5)cc(C)cc2n1` [Example 252, ((7R,8R)-5-fluoro-2-(2-methoxy-7-methylquinoxalin-5-yl)-8-methyl-7,8-dihydrobenzofuro[5,4-d]thiazol-7-yl)methyl (2-(2-hydroxyethoxy)pyrimidin-5-yl)carbamate] yielded an IC50 of 88 nM. Compound `COc1cnc2c(-c3nc4cc(F)c5c(c4s3)[C@H](C)[C@@H](CO)O5)cc(Cl)cc2n1` [Example 253, ((7S,8S)-2-(7-chloro-2-methoxyquinoxalin-5-yl)-5-fluoro-8-methyl-7,8-dihydrobenzofuro [5,4-d]thiazol-7-yl)methanol] has an IC50 of 2.7 nM. Work on `COc1cnc2c(-c3nc4cc(F)c5c(c4s3)[C@H](C)[C@@H](CO)O5)cc(C#N)cc2n1` [Example 254, 8-((7S,8S)-5-fluoro-7-(hydroxymethyl)-8-methyl-7,8-dihydrobenzofuro[5,4-d]thiazol-2-y 1)-3-methoxyquinoxaline-6-carbonitrile] yielded an IC50 of 0.6 nM. In the case of `COC(=O)NC[C@H]1Oc2c(F)cc3nc(-c4cc(C)cc5nc(OC)cnc45)sc3c2[C@@H]1C` [Example 255, Methyl (((7S,8S)-5-fluoro-2-(2-methoxy-7-methylquinoxalin-5-yl)-8-methyl-7,8-dihydrobenzofuro[5,4-d]thiazol-7-yl)methyl)carbamate], the IC50 is reported as 1.4 nM. Compound `COc1cnc2c(-c3nc4cc(F)c5c(c4s3)[C@H](C)[C@@H](CNC(=O)OCC(C)C)O5)cc(C)cc2n1` [Example 256, Isobutyl (((7S,8S)-5-fluoro-2-(2-methoxy-7-methylquinoxalin-5-yl)-8-methyl-7,8-dihydrobenzofuro[5,4-d]thiazol-7-yl)methyl)carbamate] has an IC50 of 0.7 nM. `COc1cnc2c(-c3nc4cc(F)c5c(c4s3)C[C@@H](CNC(=O)NC3CC3)O5)cc(C)cc2n1` [Example 257, (S)-1-cyclopropyl-3-((5-fluoro-2-(2-methoxy-7-methylquinoxalin-5-yl)-7,8-dihydrobenzofuro[5,4-d]thiazol-7-yl)methyl)urea] showed an IC50 of 50 nM. `COc1cnc2c(-c3nc4cc(F)c5c(c4s3)C[C@@H](CNC(=O)N3CCOCC3)O5)cc(C)cc2n1` [Example 258, (S)-N-((5-fluoro-2-(2-methoxy-7-methylquinoxalin-5-yl)-7,8-dihydrobenzofuro[5,4-d]thiazol-7-yl)methyl)morpholine-4-carboxamide] was tested, and the IC50 was 8.1 nM. With `CCOc1cnc2c(-c3nc4cc(F)c5c(c4s3)[C@H](C)[C@@H](CO)O5)cc(C)cc2n1` [Example 259, ((7S,8S)-2-(2-ethoxy-7-methylquinoxalin-5-yl)-5-fluoro-8-methyl-7,8-dihydrobenzofuro[5,4-d]thiazol-7-yl)methanol] the IC50 was 1.1 nM. Work on `CCOC(=O)NC[C@@H]1Cc2c(c(F)cc3nc(-c4cc(C)cc5nc(OC)cnc45)sc23)O1` [Example 260, (S)-ethyl ((5-fluoro-2-(2-methoxy-7-methylquinoxalin-5-yl)-7,8-dihydrobenzofuro[5,4-d]thiazol-7-yl)methyl)carbamate] yielded an IC50 of 1 nM. `COc1cnc2c(-c3nc4cc(F)c5c(c4s3)C[C@@H](CNC(=O)OCC(C)(C)C)O5)cc(C)cc2n1` [Example 261, (S)-neopentyl ((5-fluoro-2-(2-methoxy-7-methylquinoxalin-5-yl)-7,8-dihydrobenzofuro[5,4-d]thiazol-7-yl)methyl)carbamate] showed an IC50 of 1.1 nM. `COc1cnc2c(-c3nc4c(C(O)C(C)(C)C)cc5c(c4s3)OCCO5)cc(C)cc2n1` (stereo not drawn) [Example 262, 1-(2-(2-methoxy-7-methylquinoxalin-5-yl)-7,8-dihydro-[1,4]dioxino[2′,3′:3,4]benzo[1,2-d]thiazol-4-yl)-2,2-dimethylpropan-1-ol] gave an IC50 of 2.3 nM. Compound `COc1cnc2c(-c3nc4c(C(O)C(C)(C)C)cc5c(c4s3)OCO5)cc(C)cc2n1` (stereo not drawn) [Example 263, 1-(7-(2-methoxy-7-methylquinoxalin-5-yl)-[1,3]dioxolo[4′,5′:3,4]benzo[1,2-d]thiazol-5-yl)-2,2-dimethylpropan-1-ol] has an IC50 of 5.7 nM. Work on `COc1cnc2c(-c3nc4c(C(O)C(C)(C)C)cc5c(c4s3)OCCCO5)cc(C)cc2n1` (stereo not drawn) [Example 264, 1-(2-(2-methoxy-7-methylquinoxalin-5-yl)-8,9-dihydro-7H-[1,4]dioxepino[2′,3′:3,4]benzo[1,2-d]thiazol-4-yl)-2,2-dimethylpropan-1-ol] yielded an IC50 of 15 nM. `COc1cnc2c(-c3nc4ccc5c(c4s3)OC[C@H](COC(=O)Nc3cnc(C)nc3)O5)cc(Cl)cc2c1` [Example 266, (R)-(2-(6-chloro-3-methoxyquinolin-8-yl)-7,8-dihydro-[1,4]dioxino[2′,3′:3,4]benzo[1,2-d]thiazol-7-yl)methyl (2-methylpyrimidin-5-yl)carbamate] showed an IC50 of 2.1 nM. Work on `COc1cnc2c(-c3nc4cc(F)c5c(c4s3)C[C@H](COC(=O)Nc3cnc(C)nc3)O5)cc(Cl)cc2c1` [Example 267, (R)-(2-(6-chloro-3-methoxyquinolin-8-yl)-5-fluoro-7,8-dihydrobenzofuro[5,4-d]thiazol-7-yl)methyl (2-methylpyrimidin-5-yl)carbamate] yielded an IC50 of 1.8 nM. `COc1cnc2c(-c3nc4ccc5c(c4s3)OC[C@H](COC(=O)Nc3cnc(C)nc3)O5)cc(C)cc2c1` [Example 268, (R)-(2-(3-methoxy-6-methylquinolin-8-yl)-7,8-dihydro-[1,4]dioxino[2′,3′:3,4]benzo[1,2-d]thiazol-7-yl)methyl (2-methylpyrimidin-5-yl)carbamate] gave an IC50 of 4.4 nM. `COc1cnc2c(-c3nc4cc(F)c5c(c4s3)C[C@H](COC(=O)Nc3cnc(C)nc3)O5)cc(C)cc2c1` [Example 269, (R)-(5-fluoro-2-(3-methoxy-6-methylquinolin-8-yl)-7,8-dihydrobenzofuro[5,4-d]thiazol-7-yl)methyl (2-methylpyrimidin-5-yl)carbamate] showed an IC50 of 2.7 nM. `CCOc1cnc2c(-c3nc4cc(F)c5c(c4s3)C[C@H](COC(=O)Nc3cnc(C)nc3)O5)cc(Cl)cc2c1` [Example 270, (R)-(2-(6-chloro-3-ethoxyquinolin-8-yl)-5-fluoro-7,8-dihydrobenzofuro[5,4-d]thiazol-7-y 1)methyl (2-methylpyrimidin-5-yl)carbamate] was tested, and the IC50 was 2.2 nM. With `CCOc1cnc2c(-c3nc4ccc5c(c4s3)OC[C@H](COC(=O)Nc3cnc(C)nc3)O5)cc(Cl)cc2c1` [Example 271, (R)-(2-(6-chloro-3-ethoxyquinolin-8-yl)-7,8-dihydro-[1,4]dioxino[2′,3′:3,4]benzo[1,2-d]thiazol-7-yl)methyl (2-methylpyrimidin-5-yl)carbamate] the IC50 was 4.9 nM. In the case of `Cc1ncc(NC(=O)OC[C@H]2COc3c(ccc4nc(-c5cc(Cl)cc6cc(OC(F)F)cnc56)sc34)O2)cn1` [Example 272, (R)-(2-(6-chloro-3-(difluoromethoxy)quinolin-8-yl)-7,8-dihydro-[1,4]dioxino[2′,3′:3,4]benzo[1,2-d]thiazol-7-yl)methyl (2-methylpyrimidin-5-yl)carbamate], the IC50 is reported as 3.3 nM. `Cc1ncc(NC(=O)OC[C@H]2Cc3c(c(F)cc4nc(-c5cc(Cl)cc6cc(OC(F)F)cnc56)sc34)O2)cn1` [Example 273, (R)-(2-(6-chloro-3-(difluoromethoxy)quinolin-8-yl)-5-fluoro-7,8-dihydrobenzofuro[5,4-d]thiazol-7-yl)methyl (2-methylpyrimidin-5-yl)carbamate] was tested, and the IC50 was 6.4 nM. `COc1cnc2c(-c3nc4ccc5c(c4s3)OC[C@H](COC(=O)Nc3cnc(C)nc3)O5)cc(C(F)F)cc2c1` [Example 275, (R)-(2-(6-(difluoromethyl)-3-methoxyquinolin-8-yl)-7,8-dihydro-[1,4]dioxino [2′,3′:3,4]benzo[1,2-d]thiazol-7-yl)methyl (2-methylpyrimidin-5-yl)carbamate] gave an IC50 of 12 nM. With `COc1cnc2c(-c3nc4ccc5c(c4s3)OC[C@H](COC(=O)Nc3cnc(C)nc3)O5)cc(CF)cc2c1` [Example 276, (R)-(2-(6-(fluoromethyl)-3-methoxyquinolin-8-yl)-7,8-dihydro-[1,4]dioxino[2′,3′:3,4]benzo[1,2-d]thiazol-7-yl)methyl (2-methylpyrimidin-5-yl)carbamate] the IC50 was 140 nM. `COc1cnc2c(-c3nc4c(C(O)C5(C)CCCCC5)cc5c(c4s3)OCCO5)cc(C)cc2n1` (stereo not drawn) [Example 278, (2-(2-methoxy-7-methylquinoxalin-5-yl)-7,8-dihydro-[1,4]dioxino[2′,3′:3,4]benzo[1,2-d]thiazol-4-yl)(1-methylcyclohexyl)methanol] was tested, and the IC50 was 19 nM. In the case of `COc1cnc2c(-c3nc4c(C(O)C5(C(F)(F)F)CC5)cc5c(c4s3)OCCO5)cc(C)cc2n1` (stereo not drawn) [Example 279, (2-(2-methoxy-7-methylquinoxalin-5-yl)-7,8-dihydro-[1,4]dioxino[2′,3′:3,4]benzo[1,2-d]thiazol-4-yl)(1-(trifluoromethyl)cyclopropyl)methanol], the IC50 is reported as 9.1 nM. `COc1cnc2c(-c3nc4cc(F)c5c(c4s3)C[C@H](COC(=O)Nc3cnc(C)nc3)O5)cc(F)cc2c1` [Example 280, (R)-(5-fluoro-2-(6-fluoro-3-methoxyquinolin-8-yl)-7,8-dihydrobenzofuro[5,4-d]thiazol-7-yl)methyl (2-methylpyrimidin-5-yl)carbamate] gave an IC50 of 2.4 nM. `COc1cnc2c(-c3nc4ccc5c(c4s3)OC[C@H](COC(=O)Nc3cnc(C)nc3)O5)cc(F)cc2c1` [Example 281, (R)-(2-(6-fluoro-3-methoxyquinolin-8-yl)-7,8-dihydro-[1,4]dioxino[2′,3′:3,4]benzo[1,2-d]thiazol-7-yl)methyl (2-methylpyrimidin-5-yl)carbamate] showed an IC50 of 9 nM.
